# Measured values as given in patent EP4617278A1, “NUCLEOTIDE ANALOG, AND COMPOSITION AND USE THEREOF” (priority 2022, dated 2024).
# Tested on: SARS-CoV-2 replicon
# Assay type: cell-based
# Conditions: read-out: SARS-CoV-2 Replicon (Huh-7cell) EC50
row,SMILES,EC50
1,"CCC(CC)COC(=O)[C@H](C)N[P@@](=O)(OCOC(=O)C(C)(C)C)OC[C@H]1O[C@@](C#N)(c2ccc3c(N)ncnn23)[C@H](OC(=O)C(C)C)[C@@H]1OC(=O)C(C)C [Compound 11b, (2R,3R,4R,5R)-2-(4-aminopyrrolo[2,1-f][1,2,4]triazin-7-yl)-2-cyano-5-((((S)-(((S)-1-(2-ethylbutoxy)-1-oxopropan-2-yl)amino)((pivaloyloxy)methoxy)phosphoryl)oxy)methyl)tetrahydrofuran-3,4-diyl bis(2-methylpropionate)]",< 5 nM
2,"CCC(CC)COC(=O)[C@H](C)N[P@](=O)(OCOC(=O)C(C)(C)C)OC[C@H]1O[C@@](C#N)(c2ccc3c(N)ncnn23)[C@H](OC(=O)C(C)(C)C)[C@@H]1OC(=O)C(C)(C)C [Compound 12a, (2R,3R,4R,5R)-2-(4-aminopyrrolo[2,1-f][1,2,4]triazin-7-yl)-2-cyano-5-((((R)-(((S)-1-(2-ethylbutoxy)-1-oxopropan-2-yl)amino)((pivaloyloxy)methoxy)phosphoryl)oxy)methyl)tetrahydrofuran-3,4-diyl bis(2,2-dimethylpropionate)]",50 to 500 nM
3,"CCC(CC)COC(=O)[C@H](C)N[P@@](=O)(OCOC(=O)C(C)(C)C)OC[C@H]1O[C@@](C#N)(c2ccc3c(N)ncnn23)[C@H](OC(=O)C(C)(C)C)[C@@H]1OC(=O)C(C)(C)C [Compound 12b, (2R,3R,4R,5R)-2-(4-aminopyrrolo[2,1-f][1,2,4]triazin-7-yl)-2-cyano-5-((((S)-(((S)-1-(2-ethylbutoxy)-1-oxopropan-2-yl)amino)((pivaloyloxy)methoxy)phosphoryl)oxy)methyl)tetrahydrofuran-3,4-diyl bis(2,2-dimethylpropionate)]",50 to 500 nM
4,"CC(C)OC(=O)OCO[P@@](=O)(N[C@@H](C)C(=O)OC1CCC1)OC[C@H]1O[C@@](C#N)(c2ccc3c(N)ncnn23)[C@H](OC(=O)C(C)C)[C@@H]1OC(=O)C(C)C [Compound 13a, (2R,3R,4R,5R)-2-(4-aminopyrrolo[2,1-f][1,2,4]triazin-7-yl)-2-cyano-5-((((R)-(((S)-1-cyclobutoxy-1-oxopropan-2-yl)amino)(((isopropoxycarbonyl)oxy)methoxy)phosphoryl)oxy)methyl)tetrahydrofuran-3,4-diyl bis(2-methylpropionate)]",< 5 nM
5,"CC(C)OC(=O)OCO[P@](=O)(N[C@@H](C)C(=O)OC1CCC1)OC[C@H]1O[C@@](C#N)(c2ccc3c(N)ncnn23)[C@H](OC(=O)C(C)C)[C@@H]1OC(=O)C(C)C [Compound 13b, (2R,3R,4R,5R)-2-(4-aminopyrrolo[2,1-f][1,2,4]triazin-7-yl)-2-cyano-5-((((S)-(((S)-1-cyclobutoxy-1-oxopropan-2-yl)amino)(((isopropoxycarbonyl)oxy)methoxy)phosphoryl)oxy)methyl)tetrahydrofuran-3,4-diyl bis(2-methylpropionate)]",< 5 nM
6,"CCC(CC)COC(=O)[C@H](C)N[P@](=O)(OCc1ccccc1C)OC[C@H]1O[C@@](C#N)(c2ccc3c(N)ncnn23)[C@H](OC(=O)C(C)C)[C@@H]1OC(=O)C(C)C [Compound 16a, (2R,3R,4R,5R)-2-(4-aminopyrrolo[2,1-f][1,2,4]triazin-7-yl)-2-cyano-5-((((S)-(((S)-1-(2-ethylbutoxy)-1-oxopropan-2-yl)amino)((2-methylbenzyl)oxy)phosphoryl)oxy)methyl)tetrahydrofuran-3,4-diyl bis(2-methylpropionate)]",50 to 500 nM
7,"CCC(CC)COC(=O)[C@H](C)N[P@@](=O)(OCc1ccccc1C)OC[C@H]1O[C@@](C#N)(c2ccc3c(N)ncnn23)[C@H](OC(=O)C(C)C)[C@@H]1OC(=O)C(C)C [Compound 16b, (2R,3R,4R,5R)-2-(4-aminopyrrolo[2,1-f][1,2,4]triazin-7-yl)-2-cyano-5-((((R)-(((S)-1-(2-ethylbutoxy)-1-oxopropan-2-yl)amino)((2-methylbenzyl)oxy)phosphoryl)oxy)methyl)tetrahydrofuran-3,4-diyl bis(2-methylpropionate)]",50 to 500 nM
8,"CC(=O)O[C@H]1[C@@H](OC(C)=O)[C@](C#N)(c2ccc3c(N)ncnn23)O[C@@H]1COP(=O)(OCOC(=O)OC(C)C)OCOC(=O)OC(C)C [Compound 17, (2R,3R,4R,5R)-2-(4-aminopyrrolo[2,1-f][1,2,4]triazin-7-yl)-5-((((bis(((isopropoxycarbonyl)oxy)methoxy)phosphoryl))oxy)methyl)-2-cyanotetrahydrofuran-3,4-diyl diacetate]",< 5 nM
9,"CCC(=O)O[C@H]1[C@@H](OC(=O)CC)[C@](C#N)(c2ccc3c(N)ncnn23)O[C@@H]1COP(=O)(OCOC(=O)OC(C)C)OCOC(=O)OC(C)C [Compound 18, (2R,3R,4R,5R)-2-(4-aminopyrrolo[2,1-f][1,2,4]triazin-7-yl)-5-((((bis(((isopropoxycarbonyl)oxy)methoxy))phosphoryl)oxy)methyl)-2-cyanotetrahydrofuran-3,4-diyl dipropionate]",< 5 nM
10,"CC(C)OC(=O)OCOP(=O)(OCOC(=O)OC(C)C)OC[C@H]1O[C@@](C#N)(c2ccc3c(N)ncnn23)[C@H](OC(=O)C(C)C)[C@@H]1OC(=O)C(C)C [Compound 19, (2R,3R,4R,5R)-2-(4-aminopyrrolo[2,1-f][1,2,4]triazin-7-yl)-5-((((bis(((isopropoxycarbonyl)oxy)methoxy))phosphoryl)oxy)methyl)-2-cyanotetrahydrofuran-3,4-diyl bis(2-methylpropionate)]",< 5 nM
11,"CC(C)OC(=O)OCOP(=O)(OCOC(=O)OC(C)C)OC[C@H]1O[C@@](C#N)(c2ccc3c(N)ncnn23)[C@H](OC(=O)C(C)(C)C)[C@@H]1OC(=O)C(C)(C)C [Compound 20, (2R,3R,4R,5R)-2-(4-aminopyrrolo[2,1-f][1,2,4]triazin-7-yl)-5-((((bis(((isopropoxycarbonyl)oxy)methoxy))phosphoryl)oxy)methyl)-2-cyanotetrahydrofuran-3,4-diyl bis(2,2-dimethylpropionate)]",10 to 50 nM
12,"[2H]c1cc([C@]2(C#N)O[C@H](COP(=O)(OCOC(=O)OC(C)C)OCOC(=O)OC(C)C)[C@@H](OC(=O)C(C)C)[C@H]2OC(=O)C(C)C)n2ncnc(N)c12 [Compound 21, (2R,3R,4R,5R)-2-(4-amino-5-deuteriopyrrolo[2,1-f][1,2,4]triazin-7-yl)-5-((((bis(((isopropoxycarbonyl)oxy)methoxy))phosphoryl)oxy)methyl)-2-cyanotetrahydrofuran-3,4-diyl bis(2-methylpropionate)]",< 5 nM
13,"CC(=O)O[C@H]1[C@@H](OC(C)=O)[C@](C#N)(c2ccc3c(N)ncnn23)O[C@@H]1CO[P@](=O)(OCOC(=O)OC(C)C)Oc1ccc(C(C)(C)C)cc1 [Compound 22a, (2R,3R,4R,5R)-2-(4-aminopyrrolo[2,1-f][1,2,4]triazin-7-yl)-5-((((S)-(4-tert-butylphenoxy)(((isopropoxycarbonyl)oxy)methoxy)phosphoryl)oxy)methyl)-2-cyanotetrahydrofuran-3,4-diyl diacetate]",< 5 nM
14,"CC(=O)O[C@H]1[C@@H](OC(C)=O)[C@](C#N)(c2ccc3c(N)ncnn23)O[C@@H]1CO[P@@](=O)(OCOC(=O)OC(C)C)Oc1ccc(C(C)(C)C)cc1 [Compound 22b, ((2R,3R,4R,5R)-2-(4-aminopyrrolo[2,1-f][1,2,4]triazin-7-yl)-5-((((R)-(4-tert-butylphenoxy)(((isopropoxycarbonyl)oxy)methoxy)phosphoryl)oxy)methyl)-2-cyanotetrahydrofuran-3,4-diyl diacetate]",5 to 10 nM
15,"CCC(=O)O[C@H]1[C@@H](OC(=O)CC)[C@](C#N)(c2ccc3c(N)ncnn23)O[C@@H]1CO[P@](=O)(OCOC(=O)OC(C)C)Oc1ccc(C(C)(C)C)cc1 [Compound 23a, (2R,3R,4R,5R)-2-(4-aminopyrrolo[2,1-f][1,2,4]triazin-7-yl)-5-((((S)-(4-tert-butylphenoxy)(((isopropoxycarbonyl)oxy)methoxy)phosphoryl)oxy)methyl)-2-cyanotetrahydrofuran-3,4-diyl dipropionate]",< 5 nM
16,"CCC(=O)O[C@H]1[C@@H](OC(=O)CC)[C@](C#N)(c2ccc3c(N)ncnn23)O[C@@H]1CO[P@@](=O)(OCOC(=O)OC(C)C)Oc1ccc(C(C)(C)C)cc1 [Compound 23b, ((2R,3R,4R,5R)-2-(4-aminopyrrolo[2,1-f][1,2,4]triazin-7-yl)-5-((((R)-(4-tert-butylphenoxy)(((isopropoxycarbonyl)oxy)methoxy)phosphoryl)oxy)methyl)-2-cyanotetrahydrofuran-3,4-diyl dipropionate]",5 to 10 nM
17,"CC(C)OC(=O)OCO[P@@](=O)(OC[C@H]1O[C@@](C#N)(c2ccc3c(N)ncnn23)[C@H](OC(=O)C(C)C)[C@@H]1OC(=O)C(C)C)Oc1ccc(C(C)(C)C)cc1 [Compound 24a, (2R,3R,4R,5R)-2-(4-aminopyrrolo[2,1-f][1,2,4]triazin-7-yl)-5-((((S)-(4-tert-butylphenoxy)(((isopropoxycarbonyl)oxy)methoxy)phosphoryl)oxy)methyl)-2-cyanotetrahydrofuran-3,4-diyl bis(2-methylpropionate)]",< 5 nM
18,CC(C)OC(=O)OCO[P@](=O)(OC[C@H]1O[C@@](C#N)(c2ccc3c(N)ncnn23)[C@H](OC(=O)C(C)C)[C@@H]1OC(=O)C(C)C)Oc1ccc(C(C)(C)C)cc1 [Compound 24b],10 to 50 nM
19,"CC(C)C(=O)OCO[P@@](=O)(OC[C@H]1O[C@@](C#N)(c2ccc3c(N)ncnn23)[C@H](OC(=O)C(C)C)[C@@H]1OC(=O)C(C)C)Oc1ccc(C(C)(C)C)cc1 [Compound 26a, (2R,3R,4R,5R)-2-(4-aminopyrrolo[2,1-f][1,2,4]triazin-7-yl)-5-((((S)-(4-tert-butylphenoxy)((isobutyryloxy)methoxy)phosphoryl)oxy)methyl)-2-cyanotetrahydrofuran-3,4-diyl bis(2-methylpropionate)]",5 to 10 nM
20,"CC(C)C(=O)O[C@H]1[C@@H](OC(=O)C(C)C)[C@](C#N)(c2ccc3c(N)ncnn23)O[C@@H]1COP(=O)(OCOC(=O)C(C)(C)C)OCOC(=O)C(C)(C)C [Compound 29, (2R,3R,4R,5R)-2-(4-aminopyrrolo[2,1-f][1,2,4]triazin-7-yl)-5-((((bis(((tert-butylcarbonyl)oxy)methoxy))phosphoryl)oxy)methyl)-2-cyanotetrahydrofuran-3,4-diyl bis(2-methylpropionate)]",10 to 50 nM
